Source: ChEMBL document CHEMBL4814037, “Synthesis of pyrazoline fatty chain derivatives and its effects on melanoma cells” (2021)
The source made the active and inactive calls. The rule behind the calls is not given here.

Tests used:
B16-F10 [1] = assay: Cytotoxicity against mouse B16-F10 cells assessed as cell viability at 300 uM incubated for 48 hrs relative to control; format: functional; details: read-out: Activity
B16-F10 [2] = assay: Cytotoxicity against mouse B16-F10 cells assessed as cell viability at 3000 uM incubated for 48 hrs relative to control; format: functional; details: read-out: Activity
B16-F10 [3] = assay: Cytotoxicity against mouse B16-F10 cells assessed as cell viability at 300 uM incubated for 72 hrs relative to control; format: functional; details: for viability at 300 µM: read-out: Activity
B16-F10 [4] = assay: Cytotoxicity against mouse B16-F10 cells assessed as cell viability at 3000 uM incubated for 72 hrs relative to control; format: functional; details: for viability at 3000 µM: read-out: Activity
B16-F10 [5] = assay: Cytotoxicity against mouse B16-F10 cells assessed as cell viability at 3000 uM incubated for 24 hrs relative to control; format: functional; details: for viability at 3000 µM: read-out: Activity
B16-F10 [6] = assay: Cytotoxicity against mouse B16-F10 cells assessed as decrease in cell viability at 3000 uM incubated for 72 hrs; format: functional, cell-based
B16-F10 [7] = assay: Cytotoxicity against mouse B16-F10 cells assessed as cell viability at 300 uM incubated for 24 hrs relative to control; format: functional; details: read-out: Activity
B16-F10 [8] = assay: Cytotoxicity against mouse B16-F10 cells assessed as cell viability at 300 uM measured immediately relative to control; format: functional; details: read-out: Activity
B16-F10 [9] = assay: Cytotoxicity against mouse B16-F10 cells assessed as cell viability at 30 uM incubated for 48 hrs relative to control; format: functional; details: read-out: Activity
B16-F10 [10] = assay: Cytotoxicity against mouse B16-F10 cells assessed as cell viability at 30 uM incubated for 72 hrs relative to control; format: functional; details: read-out: Activity
B16-F10 [11] = assay: Cytotoxicity against mouse B16-F10 cells assessed as cell viability at 3 to 3000 uM measured after 48 to 72 hrs; format: functional, cell-based; details: dose 3-3000 µM, time 48-72 hrs
B16-F10 [12] = assay: Cytotoxicity against mouse B16-F10 cells assessed as cell viability at 3 uM incubated for 48 hrs relative to control; format: functional; details: read-out: Activity

CCCCCCC1=NN(C(N)=O)C(O)(C(F)(F)F)C1 (stereo not drawn)
viability at 300 µM (B16-F10 [1]): 53% | viability at 3000 µM (B16-F10 [2]): 8% | Activity (B16-F10 [3]): Active | Activity (B16-F10 [4]): Active | viability at 3000 µM (B16-F10 [5]): 76%

CC1=NN(C(N)=O)C(O)(C(F)(F)F)C1 (stereo not drawn)
Activity (B16-F10 [6]): Active

CCCCCCC1=NN(C(N)=S)C(O)(C(F)(F)F)C1 (stereo not drawn)
viability at 3000 µM (B16-F10 [2]): 8% | viability at 3000 µM (B16-F10 [4]): 8% | viability at 3000 µM (B16-F10 [5]): 16%

NC(=O)N1N=CCC1(O)C(F)(F)F (stereo not drawn)
viability at 300 µM (B16-F10 [1]): 43% | viability at 3000 µM (B16-F10 [2]): 17% | viability at 300 µM (B16-F10 [3]): 17% | viability at 3000 µM (B16-F10 [4]): 7%

CCCCCCCCCCCC1=NN(C(N)=O)C(O)(C(F)(F)F)C1 (stereo not drawn)
viability at 300 µM (B16-F10 [1]): 16% | viability at 300 µM (B16-F10 [7]): 17% | viability at 300 µM (B16-F10 [8]): 78% | viability at 30 µM (B16-F10 [9]): 76% | viability at 30 µM (B16-F10 [10]): 51% | Activity (B16-F10 [6]): Active

NC(=S)N1N=CCC1(O)C(F)(F)F (stereo not drawn)
inhibition (B16-F10 [11]): Active

CC1=NN(C(N)=S)C(O)(C(F)(F)F)C1 (stereo not drawn)
viability at 3000 µM (B16-F10 [2]): 9% | viability at 3000 µM (B16-F10 [4]): 4% | Activity (B16-F10 [5]): Active

CCCCCCCCCCCC1=NN(C(N)=S)C(O)(C(F)(F)F)C1 (stereo not drawn)
viability at 300 µM (B16-F10 [1]): 18% | viability at 300 µM (B16-F10 [3]): 10% | viability at 300 µM (B16-F10 [7]): 17% | viability at 30 µM (B16-F10 [9]): 67% | viability at 3 µM (B16-F10 [12]): 89%
